Patent US20150246067A1, “ANTIVIRAL TREATMENT OF LYMPHOMA AND CANCER” (THE REGENTS OF THE UNIVERSITY OF MICHIGAN, priority 2009, published 2015)

Each compound was assayed on HERV K (HML2) (assay: Reverse transcriptase activity in supernatants of drug-treated NCCIT cells (Reverse Transcription Assay Kit)). Conditions: 7 days, increasing doses of drug, supernatant, FIGS. 4A-I.
Assay type: cell-based, human
Procedure: HIV antivirals were assayed to determine which antiviral agents have an antiviral effect against HERV K (HML2). The NCCIT cell line derived from a teratocarcinoma produces many HERV K (HML2) viral particles. NCCIT cells were maintained at 40% confluence in 6-well plates in RPMI medium and incubated for 7 days in the presence of increasing doses of nucleoside or non-nucleoside reverse transcriptase inhibitors or HIV protease inhibitors. Drugs, provided as lyophilized powders by the AIDS Research and Reference Reagent Program, were resuspended to a final concentration of 10 mg/mL (except for PFA: 60 mg/mL) in different solvents as recommended (SEE table 1). Cells were incubated for 7 days at increasing doses of drugs or the vehicle of solution as controls. Supernatants were collected and cell debris was removed by centrifugation at 2300 rpm for 20 min. Supernatant was assessed for Reverse Transcriptase Activity using the Reverse Transcription Assay Kit (Invitrogen) as described by the manufacturer. In addition, supernatants were treated with 20 units of DNAse (Roche) for 1 hour at 37° C. and viral RNA was extracted using the Viral RNA mini kit (Qiagen) as described by the manufacturer. The HERV-K type 2 viral load was measured by quantitative Real Time RT-PCR using primers that expand the type-2 env gene region, which is absent in type-1 viruses, Kenv type2F: 5′-[…]-3′ (SEQ ID NO. 1), and Kenv type2R: 5′-[…]-3′ (SEQ ID NO. 2). Standard curves were generated using serial dilutions of in vitro RNA transcripts as external calibrators. In a similar way, quantities of HERV—K type 2 proviruses were measured by Real Time PCR using 500 ng of isolated DNA.
With CC(C)OC(=O)OCOP(=O)(CO[C@H](C)Cn1cnc2c(N)ncnc21)OCOC(=O)OC(C)C [tenofovir disoproxil, Tenofovir disoproxyl fumarato] the “HERV K (HML2) RT activity” value was “reduction”. With Nc1nc(NC2CC2)c2ncn([C@H]3C=C[C@@H](CO)C3)c2n1 [Abacavir] the “HERV K (HML2) RT activity” value was “reduction”. For O=c1nc(NO)ccn1[C@@H]1O[C@H](CO)[C@@H](O)[C@H]1O [β-D hydroxycytidine, β-d hydroxy cytidine], the “HERV K (HML2) RT activity” value was “reduction”. For O=c1[nH]cnc2c1ncn2[C@H]1CC[C@@H](CO)O1 [ddI, Dideoxyinosine], the “HERV K (HML2) RT activity” value was “reduction”. For Nc1ccn([C@H]2CC[C@@H](CO)O2)c(=O)n1 [ddC, zalcitabine], the “HERV K (HML2) RT activity” value was “reduction”. In the case of Cc1cn([C@H]2C[C@H](N=[N+]=[N-])[C@@H](CO)O2)c(=O)[nH]c1=O [AZT, Zidovudine], the “HERV K (HML2) RT activity” value was “reduction”. For Cc1cn([C@H]2C=C[C@@H](CO)O2)c(=O)[nH]c1=O [d4T, Stavudine], the “HERV K (HML2) RT activity” value was “reduction”. Nc1nc(=O)n([C@@H]2CS[C@H](CO)O2)cc1F [FTC, Emtricitabine] was tested, and the “HERV K (HML2) RT activity” value was “reduction”.
